Legend:
human orexin 1 receptor = human orexin 1 receptor (Homo sapiens, UniProt O43613); experiment: Human orexin 1 receptor radioligand binding; details: CHO cells stably expressing human orexin 1 receptor; apparent Ki; read-out: hOX1 Ki
Procedure, shortened: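 Homogenized CHO cells stably expressing human orexin 1 receptor, in PBS. They were incubated 60 min at room temperature with 4 nM final tritiated thiazolyl-pyrrolidinyl-methanone radioligand, DMSO ≤0.1%. Nonspecific binding taken with 10 μM almorexant; bound radioactivity collected by GF/C filtration and scintillation-counted.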

human orexin 2 receptor = human orexin 2 receptor (Homo sapiens (Human), UniProt O43614); experiment: Human orexin 2 receptor radioligand binding ([3H]-EMPA); details: HEK293 stably expressing human orexin 2 receptor; [3H]-EMPA; apparent Ki; read-out: hOX2 Ki
Sequence of human orexin 2 receptor (O43614 whole entry): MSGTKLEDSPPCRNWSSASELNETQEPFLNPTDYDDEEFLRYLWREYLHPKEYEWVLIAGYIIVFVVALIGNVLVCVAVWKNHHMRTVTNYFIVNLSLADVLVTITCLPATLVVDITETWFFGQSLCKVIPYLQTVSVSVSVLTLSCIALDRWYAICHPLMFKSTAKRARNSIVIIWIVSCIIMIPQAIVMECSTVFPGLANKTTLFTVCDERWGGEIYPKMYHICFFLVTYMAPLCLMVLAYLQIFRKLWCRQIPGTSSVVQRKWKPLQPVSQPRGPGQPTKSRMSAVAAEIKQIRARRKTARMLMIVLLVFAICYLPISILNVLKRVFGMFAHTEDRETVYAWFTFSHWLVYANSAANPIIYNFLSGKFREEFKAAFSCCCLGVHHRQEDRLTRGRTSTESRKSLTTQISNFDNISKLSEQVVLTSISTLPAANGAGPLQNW
Procedure, shortened: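 Competition binding with 2 nM final [3H]-EMPA in PBS against homogenized whole-cell suspension; DMSO ≤0.1%. Nonspecific binding defined with […] almorexant. Plates washed with PBS, dried, and bound radioactivity counted by scintillation.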

rat orexin 1 receptor = rat orexin 1 receptor (Rattus norvegicus, UniProt P56718); experiment: Rat orexin 1 receptor radioligand binding; details: HEK293 cells stably expressing rat orexin 1 receptor; apparent Ki; read-out: rOX1 Ki
Procedure, shortened: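 Homogenized cell suspensions competed against 4 nM final of a tritiated oxadiazolyl-pyrrolidinyl thiazole methanone radioligand (35.3 Ci/mmol) in PBS, with DMSO ≤0.1%. Nonspecific binding defined with 10 μM almorexant; after washing and drying, bound radioactivity counted by scintillation.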

SMILES | Ki (human orexin 1 receptor) | Ki (human orexin 2 receptor) | Ki (rat orexin 1 receptor)
Cc1cnc(C(=O)N2CCC[C@@H](Nc3nc4ccccc4o3)[C@@H]2C)c(-c2ncco2)c1 [Example 88, ((2S,3R)-3-(benzo[d]oxazol-2-ylamino)-2-methylpiperidin-1-yl)(5-methyl-3-(oxazol-2-yl)pyridin-2-yl)methanone] | 25 nM | 3300 nM | 13 nM
C[C@H]1[C@H](Nc2cnc(C(F)(F)F)cn2)CCCN1C(=O)c1cc(F)ccc1-n1nccn1 [Example 90, (5-fluoro-2-(2H-1,2,3-triazol-2-yl)phenyl)((2S,3R)-2-methyl-3-((5-(trifluoromethyl)pyrazin-2-yl)amino)piperidin-1-yl)methanone] | 19 nM | 486 nM | 20 nM
Cc1ccc(C(=O)N2CCC[C@@H](Nc3nc4ccccc4o3)[C@@H]2C)c(-n2ccnn2)n1 [Example 76, ((2S,3R)-3-(benzo[d]oxazol-2-ylamino)-2-methylpiperidin-1-yl)(6-methyl-2-(1H-1,2,3-triazol-1-yl)pyridin-3-yl)methanone] | 62 nM | 1300 nM | 54 nM
Cc1ccc(C(=O)N2CCC[C@@H](Nc3cnc(C(F)(F)F)cn3)[C@@H]2C)c(-n2ccnn2)n1 [Example 96, (6-methyl-2-(1H-1,2,3-triazol-1-yl)pyridin-3-yl)((2S,3R)-2-methyl-3-((5-(trifluoromethyl)pyrazin-2-yl)amino)piperidin-1-yl)methanone] | 47 nM | 3900 nM | 81 nM
Cc1cnc(C(=O)N2CCC[C@@H](Nc3cnc(C(F)(F)F)cn3)[C@@H]2C)c(-c2ncco2)c1 [Example 83, ((2S,3R)-2-methyl-3-((5-(trifluoromethyl)pyrazin-2-yl)amino)piperidin-1-yl)(5-methyl-3-(oxazol-2-yl)pyridin-2-yl)methanone] | 53 nM | 7000 nM | 57 nM
Cc1ccc(C(=O)N2CCC[C@@H](Nc3ncc(C(F)(F)F)cn3)[C@@H]2C)c(-n2nccn2)c1 [Example 71, (4-methyl-2-(2H-1,2,3-triazol-2-yl)phenyl)((2S,3R)-2-methyl-3-((5-(trifluoromethyl)pyrimidin-2-yl)amino)piperidin-1-yl)methanone] | 12 nM | 1500 nM | 10 nM
C[C@H]1[C@H](Nc2ccc(C(F)(F)F)cn2)CCCN1C(=O)c1cc(Cl)ccc1-n1nccn1 (racemic) [Example 17, (±)-trans-(5-chloro-2-(2H-1,2,3-triazol-2-yl)phenyl)(2-methyl-3-((5-(trifluoromethyl)pyridin-2-yl)amino)piperidin-1-yl)methanone] | 8 nM | 221 nM | 11 nM
Cc1cnc(C(=O)N2CCC[C@@H](Oc3ncc(C(F)(F)F)cn3)[C@@H]2C)c(-n2nccn2)c1 [Example 101, ((2S,3R)-2-methyl-3-((5-(trifluoromethyl)pyrimidin-2-yl)oxy)piperidin-1-yl)(5-methyl-3-(2H-1,2,3-triazol-2-yl)pyridin-2-yl)methanone] | 446 nM | > 10000 nM | 215 nM
CCOc1ccccc1C(=O)N1CCC[C@@H](Nc2ccc(C(F)(F)F)cn2)[C@@H]1C (racemic) [Example 29, (±)-trans-(2-ethoxyphenyl)(2-methyl-3-((5-(trifluoromethyl)pyridin-2-yl)amino)piperidin-1-yl)methanone] | 90 nM | 1400 nM | 97 nM
Cc1ccc(C(=O)N2CCC[C@@H](Nc3ncc(Cl)cn3)[C@@H]2C)c(-n2nccn2)c1 [Example 91, ((2S,3R)-3-((5-chloropyrimidin-2-yl)amino)-2-methylpiperidin-1-yl)(4-methyl-2-(2H-1,2,3-triazol-2-yl)phenyl)methanone] | 48 nM | 2100 nM | 32 nM
Cc1cnc(C(=O)N2CCC[C@@H](Nc3cnc(Cl)cn3)[C@@H]2C)c(-c2ncco2)c1 [Example 86, ((2S,3R)-3-((5-chloropyrazin-2-yl)amino)-2-methylpiperidin-1-yl)(5-methyl-3-(oxazol-2-yl)pyridin-2-yl)methanone] | 249 nM | > 10000 nM | 213 nM
Cc1ccc(-c2ncccn2)c(C(=O)N2CCC[C@@H](Nc3ncc(C(F)(F)F)cn3)[C@@H]2C)n1 [Example 78, ((2S,3R)-2-methyl-3-((5-(trifluoromethyl)pyrimidin-2-yl)amino)piperidin-1-yl)(6-methyl-3-(pyrimidin-2-yl)pyridin-2-yl)methanone] | 57 nM | 436 nM | 30 nM
Cc1ccc(C(=O)N2CCC[C@@H](Nc3ccc(C(F)(F)F)cn3)[C@@H]2C)c(-n2ccnn2)n1 [Example 93, (6-methyl-2-(1H-1,2,3-triazol-1-yl)pyridin-3-yl)((2S,3R)-2-methyl-3-((5-(trifluoromethyl)pyridin-2-yl)amino)piperidin-1-yl)methanone] | 38 nM | 2700 nM | 52 nM

Reference: patent US9115117B2, “Substituted piperidine compounds and their use as orexin receptor modulators” (JANSSEN PHARMACEUTICA NV, priority 2013, dated 2015)
